Test results reported in US7964556B1, “Antimicrobial peptides and use thereof” (Toagosei Co., Ltd, priority 2004, dated 2011).
Where a SMILES comes first, the peptide text is derived from it.

Assays:
Format in all cases: cell-based
Escherichia coli = conditions: 24 h
Method: (§1) Regarding the antimicrobial peptide in samples 1 to 14 and the comparative sample 1, the antimicrobial activities (minimum inhibitory concentration: MIC) with respect to gram-negative bacteria (Escherichia coli) and gram-positive bacteria (Staphylococcus aureus) were determined, as described below, by a liquid medium dilution technique using a 96-well microplate. First, a drug (synthesized peptide) solution having a concentration of 40 times of the highest test concentration was prepared using sterile distilled water, and thereafter liquid-bouillon mediums (“NUTRIENT BROTH Dehydrated” manufactured by DIFCO) having peptide concentrations of 200, 100, 50, 25, 12.5, 6.25, 3.13, 1.56 and 0.78 μM were produced respectively. The produced liquid-bouillon mediums including the peptide of each concentration were then fed to the 96-well microplate at 100 μL a time.
(§2) At the same time, test bacteria cultured for 18 hours at 37° C. on an agar plate (“Muller Hinton Agar” manufactured by DIFCO) were gathered by scratching with a loop, and then suspended in a sterilized physiological saline. Bacterial suspension 5 μL prepared at an equivalent of 2×10^7 cells/mL was respectively inoculated (number of bacteria to be tested: approximately 1×10^6 cells/mL) onto the above-described liquid-bouillon mediums including the peptide of each concentration and fed to each well of the above-described microplate. After inoculation, the microplate was then incubated in an incubator at 37° C., and the presence of bacteria was evaluated based on the turbidity 24 hours later. The minimum drug concentration (peptide concentration), in which an increased in turbidity caused by bacteria was not detected at the time of measurement, was defined as MIC (minimum inhibitory concentration) (unit: μM) in the present embodiment.

Staphylococcus aureus = conditions: for Antimicrobial Activities (MIC) S. aureus: 24 h; for antimicrobial activities against gram-positive bacteria (S. aureus), in words: summary of Table 2
Method: as §1, §2

S. aureus = test system: S. aureus
Method: Next, the antimicrobial activities (MIC) against gram-positive bacteria (S. aureus) in the presence of serum and high concentration of cation were tested with the same method as Example 2. However, only the above-described sample 9 was used as the test peptide. Specifically, a drug (synthesized peptide of sample 9) solution having a concentration of 40 times of the highest test concentration was prepared using sterile distilled water. Thereafter, MHB mediums (“Mueller Hinton Broth” manufactured by DIFCO) including high concentration of cation with peptide concentrations of 50, 25, 12.5, 6.25, 3.13, 1.56 and 0.78 μM were produced respectively. The cation included was prepared as follows: dissolving 3.68 g of CaCl2.2H2O in 100 mL of purified water (10 mg.Ca^2+/mL), and thereafter adding 500 μL thereof into 100 mL of Mueller Hinton Broth; and dissolving 8.36 g of MgCl2.6H2O in 100 mL of purified water (10 mg.Mg^2+/mL), and thereafter adding 250 μL thereof into 100 mL of Mueller Hinton Broth.
Mediums (hereinafter “MHB serum mediums including high concentration of cation”) were further prepared by adding horse serum (mechanically sterilized Nippon Biotest Laboratories inc. product), which made up of 10% volume ratio of the entire medium, into the MHB mediums including high concentration of cation. The MHB serum mediums including high concentration of cation had peptide concentrations of 50, 25, 12.5, 6.25, 3.13, 1.56 and 0.78 μM.
Next, the above-described MHB mediums including high concentration of cation and having peptide of each concentration, and the above-described MHB serum mediums including high concentration of cation and having peptide of each concentration were fed to the 96-well microplate at 100 μL a time, and the MIC were determined using the same method as example 2. As comparison, commercially available MHB mediums having peptide concentration of 50, 25, 12.5, 6.25, 3.13, 1.56 and 0.78 μM were used.

sheep's erythrocytes = test system: sheep's erythrocytes
Method: A test on the hemolytic activity of 2 kinds of synthesized peptides (sample 9 and sample 10) in example 1 was performed and served as indicator of the effects of these peptides on animal cell (erythrocyte). The hemolytic activity test in the present example was performed as follows. Specifically, sample peptides were dissolved in PBS (pH7.4), and thereafter 10 stages of twice diluted strains (sample solutions) with peptide concentration of 400, 200, 100, 50, 25, 12.5, 6.25, 3.13, 1.56 and 0.78 μM were prepared. Here, PBS was used as a control of 0% hemolysis, and PBS containing 0.1% of triton X-100 was used as a control of 100% hemolysis. Erythrocyte of fiber-free sheep's blood was then added to these sample solutions such that the volume ratio (v/v) was 1% of these sample solutions. After adding the above-described red blood cells, the sample solutions were incubated for 1 hour at 37° C., and thereafter the hemolysis was ceased with cold water. Next, centrifugal separation at 3000 rpm was performed for […] at 4° C.
After centrifugal separation, each supernatant was fed to the 96-well microplate, and absorbency under 540 nm wavelength was determined. The hemolytic rate (%) was then calculated by the following formula based on the results determined: {(Aexp−A0)/A100}×100. […]

Row | Antimicrobial Activities (MIC) E. coli (Escherichia coli) | Antimicrobial Activities (MIC) S. aureus (Staphylococcus aureus) | Antimicrobial Activities (MIC) against S. aureus, MHB (S. aureus) | Antimicrobial Activities (MIC) against S. aureus, MHB + Cation (S. aureus) | Antimicrobial Activities (MIC) against S. aureus, MHB + Cation + Horse Serum (S. aureus) | Compound | antimicrobial activities against gram-positive bacteria (S. aureus), in words (Staphylococcus aureus) | hemolytic activities, in words (sheep's erythrocytes)
1 | 3.13 µM | 0.78 µM | 3.13 µM | 3.13 µM | 3.13 µM | CC[C@H](C)[C@H](NC(=O)[C@H](CCC(N)=O)NC(=O)[C@@H](NC(=O)[C@H](CCCCN)NC(=O)[C@@H](NC(=O)[C@H](CCCCN)NC(=O)[C@H](CCCNC(=N)N)NC(=O)[C@H](CCCCN)NC(=O)[C@H](CCCCN)NC(=O)[C@H](CCCCN)NC(=O)[C@@H](N)CCCNC(=N)N)C(C)C)C(C)C)C(=O)N[C@H](C(=O)N[C@@H](CC(N)=O)C(=O)N[C@@H](CCCCN)C(=O)N[C@@H](CCCCN)C(N)=O)[C@@H](C)CC [Sample 9, RKKKRKVKVQIINKK] (H-RKKKRKVKVQIINKK-NH2) | particularly high antimicrobial activities | significantly low
2 | 12.5 µM | 3.13 µM |  |  |  | CC(C)[C@H](NC(=O)[C@H](C)NC(=O)[C@@H](NC(=O)[C@H](CCCCN)NC(=O)[C@H](CCCCN)NC(=O)[C@@H](NC(=O)[C@H](CCCCN)NC(=O)[C@H](CCCNC(=N)N)NC(=O)[C@H](CCCCN)NC(=O)[C@H](CCCCN)NC(=O)[C@H](CCCCN)NC(=O)[C@@H](N)CCCNC(=N)N)C(C)C)C(C)C)C(=O)N[C@H](C(=O)N[C@@H](CCCNC(=N)N)C(=O)N[C@H](C(N)=O)[C@@H](C)O)C(C)C [Sample 10, RKKKRKVKKVAVVRT] (H-RKKKRKVKKVAVVRT-NH2) | particularly high antimicrobial activities | significantly low
